Article PMC12016938, “A small molecule PKCε inhibitor reduces hyperalgesia induced by paclitaxel or opioid withdrawal” (JCI Insight, 2025)
“And” between values parts separate entries of the source, which are not always exact repeats. Identical values can stand only once.

How the values were obtained:
ROCK2 = target: T1, ROCK2 (Homo sapiens, UniProt O75116); assay: scanMax kinome panel, ROCK2; format: binding; settings: 200 nM CP612
T1 construct: purchased Eurofins-DiscoverX
Procedure: (§1) CP612 was screened for kinome specificity at 200 nM against 468 kinases using the scanMax assay panel from Eurofins-DiscoverX. CP612 inhibited 10 other WT kinases besides PKCε, all to < 10% of control: CLK1 (CDC Like Kinase 1), CLK4, PKN1 (Protein kinase N1), PKN2, PKCδ, PKCη, PKCθ, PRKG2 (Protein Kinase CGMP-Dependent 2), ROCK1, and ROCK2.

[1] = test system: hyperalgesia induced by morphine withdrawal; assay: Prevention of hyperalgesia due to morphine withdrawal, von Frey SUDO; format: in vivo, C57BL/6J mice; settings: for von Frey filament number that led to paw withdrawal: prevention, individual mouse
Source text: We next investigated if CP612 prevents hyperalgesia induced by withdrawal from repeated administration of morphine, in male and female C57BL/6J mice. […] These findings indicate that a single dose of the PKCε inhibitor can prevent hyperalgesia induced by opioid withdrawal.

in vitro = settings: human, microsomes; for half-life at 8.5 μM: both
Procedure: Microsomal clearance. To determine if CP612 was a likely substrate for first-pass hepatic metabolism, we measured the stability of CP612 in the presence of human liver microsomes (BioIVT) pooled from over 100 male and female individuals. […] Test compounds were diluted to 10 μM in 0.1M PBS, and then 51 μL were dispensed in quadruplicate into wells of a 96-well plate, which was shaken at 600 rpm at 37°C. Reactions were initiated by adding 1.5 μL of microsomes (20 mg/mL) to the wells and 3 minutes later adding 7.5 μL of 8 mM NADPH (1 mM final concentration). Samples incubated without NADPH were used as negative controls.

PKCε = target: T2, PKCε (Homo sapiens, UniProt Q02156); assay: scanMax kinome panel (Eurofins-DiscoverX), PKCε; format: binding; set-up: purchased Eurofins-DiscoverX; settings: 200 nM CP612
T2 sequence (Q02156 1-737): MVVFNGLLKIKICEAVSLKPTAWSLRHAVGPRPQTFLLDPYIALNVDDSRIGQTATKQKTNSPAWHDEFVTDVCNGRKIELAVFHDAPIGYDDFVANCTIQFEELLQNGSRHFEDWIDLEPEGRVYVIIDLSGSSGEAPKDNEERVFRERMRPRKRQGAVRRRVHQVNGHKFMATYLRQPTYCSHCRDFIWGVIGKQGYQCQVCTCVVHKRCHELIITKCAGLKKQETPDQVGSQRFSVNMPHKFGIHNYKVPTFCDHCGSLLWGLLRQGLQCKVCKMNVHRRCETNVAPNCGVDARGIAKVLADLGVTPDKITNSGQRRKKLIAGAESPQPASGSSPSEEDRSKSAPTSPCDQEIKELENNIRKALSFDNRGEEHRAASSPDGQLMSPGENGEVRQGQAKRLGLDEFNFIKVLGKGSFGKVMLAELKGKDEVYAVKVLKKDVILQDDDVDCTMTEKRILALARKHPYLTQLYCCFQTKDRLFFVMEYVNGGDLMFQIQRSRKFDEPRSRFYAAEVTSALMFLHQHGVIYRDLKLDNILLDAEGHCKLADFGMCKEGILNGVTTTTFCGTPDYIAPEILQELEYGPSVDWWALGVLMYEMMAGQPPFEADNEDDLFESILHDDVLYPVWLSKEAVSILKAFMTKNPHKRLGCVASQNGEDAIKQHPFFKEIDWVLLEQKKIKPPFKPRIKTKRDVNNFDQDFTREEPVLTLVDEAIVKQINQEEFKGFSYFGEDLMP
Procedure: as §1

T1 sequence (O75116 whole entry): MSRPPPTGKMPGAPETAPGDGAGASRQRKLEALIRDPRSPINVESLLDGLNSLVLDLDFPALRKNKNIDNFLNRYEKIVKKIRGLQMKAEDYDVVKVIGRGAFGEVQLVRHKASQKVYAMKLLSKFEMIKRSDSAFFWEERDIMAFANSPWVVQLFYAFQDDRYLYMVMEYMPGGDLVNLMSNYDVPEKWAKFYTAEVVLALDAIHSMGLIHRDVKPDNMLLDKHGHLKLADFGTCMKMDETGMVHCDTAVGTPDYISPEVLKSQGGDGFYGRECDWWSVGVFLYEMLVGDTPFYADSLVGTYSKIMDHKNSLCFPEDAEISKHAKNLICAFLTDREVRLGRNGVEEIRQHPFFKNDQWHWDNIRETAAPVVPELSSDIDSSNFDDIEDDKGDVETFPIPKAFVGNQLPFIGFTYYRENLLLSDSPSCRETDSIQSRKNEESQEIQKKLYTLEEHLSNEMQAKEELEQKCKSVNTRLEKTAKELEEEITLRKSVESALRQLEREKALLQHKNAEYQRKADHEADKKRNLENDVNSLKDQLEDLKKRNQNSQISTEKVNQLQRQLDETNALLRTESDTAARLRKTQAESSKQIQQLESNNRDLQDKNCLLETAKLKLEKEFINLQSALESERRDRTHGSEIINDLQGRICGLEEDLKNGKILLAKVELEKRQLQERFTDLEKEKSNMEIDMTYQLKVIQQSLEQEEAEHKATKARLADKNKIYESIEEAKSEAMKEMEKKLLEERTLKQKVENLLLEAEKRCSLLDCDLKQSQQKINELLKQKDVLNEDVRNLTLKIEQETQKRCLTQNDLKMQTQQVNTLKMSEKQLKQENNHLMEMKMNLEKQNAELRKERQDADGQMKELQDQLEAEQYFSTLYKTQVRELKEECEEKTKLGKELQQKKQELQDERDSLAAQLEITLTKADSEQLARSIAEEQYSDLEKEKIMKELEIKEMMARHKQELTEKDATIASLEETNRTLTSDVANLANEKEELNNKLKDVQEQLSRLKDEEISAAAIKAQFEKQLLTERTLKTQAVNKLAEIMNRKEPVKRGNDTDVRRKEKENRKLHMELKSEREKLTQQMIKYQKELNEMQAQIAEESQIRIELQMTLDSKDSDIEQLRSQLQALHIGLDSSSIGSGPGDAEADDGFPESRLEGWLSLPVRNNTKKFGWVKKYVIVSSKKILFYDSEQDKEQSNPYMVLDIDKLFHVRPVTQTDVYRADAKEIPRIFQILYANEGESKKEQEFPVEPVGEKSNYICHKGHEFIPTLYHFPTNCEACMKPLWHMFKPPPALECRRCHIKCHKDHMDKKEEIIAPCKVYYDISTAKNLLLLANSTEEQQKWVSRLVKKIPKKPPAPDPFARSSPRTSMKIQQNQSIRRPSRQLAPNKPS

SMILES: N[C@H](CNC(=O)C1(c2ccc(Cl)cc2)CCCC1)c1ccc(C(=O)Nc2ccncc2)cc1 [CP612]
- scanMax % of control, ROCK2 (ROCK2): < 10 % of control
- Effect on pain thresholds after repeated saline ([1]; male and female mice, CP612 20 mg/kg i.p.): not modified
- Effect on development of morphine-withdrawal hyperalgesia ([1]; male and female mice, CP612 20 mg/kg i.p. 6 hours after last morphine injection): prevented
- von Frey filament number that led to paw withdrawal ([1]; female mice, Morphine schedule, 1week): 9 and 8
- von Frey filament number that led to paw withdrawal ([1]; female mice, Morphine schedule, 2weeks): 8.75
- von Frey filament number that led to paw withdrawal ([1]; female mice, Morphine schedule, 3weeks): 8.5
- von Frey filament number that led to paw withdrawal ([1]; female mice, Morphine schedule, 4weeks): 8.5
- von Frey filament number that led to paw withdrawal ([1]; female mice, Morphine schedule, 24h): 7.5 and 9.5
- von Frey filament number that led to paw withdrawal ([1]; female mice, Morphine schedule, Baseline): 9 and 9.5
- von Frey filament number that led to paw withdrawal ([1]; female mice, Saline schedule, 1week): 9.5 and 9 and 8.5 and 10
- von Frey filament number that led to paw withdrawal ([1]; female mice, Saline schedule, 2weeks): 9.5 and 9 and 10
- von Frey filament number that led to paw withdrawal ([1]; female mice, Saline schedule, 3weeks): 9 and 9.5 and 10
- von Frey filament number that led to paw withdrawal ([1]; female mice, Saline schedule, 4weeks): 9.5 and 9 and 10
- von Frey filament number that led to paw withdrawal ([1]; female mice, Saline schedule, 24h): 9 and 8 and 8.5 and 10
- von Frey filament number that led to paw withdrawal ([1]; female mice, Saline schedule, Baseline): 9.5 and 8.5 and 9 and 10 and 10.5
- von Frey filament number that led to paw withdrawal ([1]; male mice, Morphine schedule, 1week): 9.5 and 7.5 and 8.5 and 9 and 8 and 10
- von Frey filament number that led to paw withdrawal ([1]; male mice, Morphine schedule, 2weeks): 9 and 7.5 and 8 and 9.5 and 9.25 and 7.75 and 10.5
- von Frey filament number that led to paw withdrawal ([1]; male mice, Morphine schedule, 3weeks): 8 and 9 and 9.5 and 10.5
- von Frey filament number that led to paw withdrawal ([1]; male mice, Morphine schedule, 4weeks): 8 and 7.5 and 9.5 and 9 and 11 and 10
- von Frey filament number that led to paw withdrawal ([1]; male mice, Morphine schedule, 24h): 8.5 and 7.5 and 9.5 and 8 and 7 and 10.5
- von Frey filament number that led to paw withdrawal ([1]; male mice, Morphine schedule, Baseline): 7.5 and 7 and 8.5 and 9.5 and 9
- von Frey filament number that led to paw withdrawal ([1]; male mice, Saline schedule, 1week): 9 and 8.5 and 9.5 and 10.5 and 10
- von Frey filament number that led to paw withdrawal ([1]; male mice, Saline schedule, 2weeks): 6.5 and 7 and 9 and 8.5 and 8 and 9.5 and 10
- von Frey filament number that led to paw withdrawal ([1]; male mice, Saline schedule, 3weeks): 9.5 and 9 and 10
- von Frey filament number that led to paw withdrawal ([1]; male mice, Saline schedule, 4weeks): 8 and 6.5 and 6 and 9 and 7.5 and 9.5 and 10 and 10.5
- von Frey filament number that led to paw withdrawal ([1]; male mice, Saline schedule, 24h): 7.5 and 7 and 9 and 9.5 and 10
- von Frey filament number that led to paw withdrawal ([1]; male mice, Saline schedule, Baseline): 7.5 and 8.5 and 6.5 and 8 and 9 and 9.5 and 10.5
- Duration of prevention of hyperalgesia after administration ([1]; single dose CP612 20 mg/kg i.p.): up to 4 weeks
- half-life at 8.5 μM (in vitro; Microsomal clearance t½ (min)): 10.5 ± 1.31 h
- half-life at 8.5 μM (in vitro; t1/2 (half life)): 10.8 h
- half-life at 8.5 μM (in vitro; t1/2 (half life), Mean): 10.5 h
- CLint (clearance), Mean (in vitro): 2.23
- Microsomal clearance (in words) (in vitro): low
- Microsomal clearance Cl (in vitro): 2.23 ± 0.29 µL/min
- scanMax result, PKCε (PKCε): inhibited
